Values quoted from earlier work as cited in patent US12728162B2, “Methods of treating lung cancer with a PD-1 axis binding antagonist, a platinum agent, and a topoisomerase II inhibitor” (Genentech, Inc., priority 2018, dated 2026).

With [NH3+][Pt-2]1([NH3+])[O]C(=O)C2(CCC2)C(=O)[O]1 [Carboplatin, platinum, diammine [1,1-cyclobutanedicarboxylato (2-)-O,O′]—, (SP-4-2)] as the compound, how does the “solubility in organic solvents” value (ethanol, acetone, and dimethylacetamide) read?
Its value is “virtually insoluble”.

And the solubility in water (water)?
The solubility in water was “approximately 14 mg/mL”.
